Data published in patent US9937115B2, “Oral care compositions with improved flavor” (priority 2010, dated 2018).

Tests used:
[1] = Panelists brushed with dentifrice Formula Ia-Ie and rated reduction in soapy off taste and flavor character; assay type: in vivo; details: molecule incorporated in toothpaste Formula Ia-Ie; panelists n=4
Source text: Then, these materials were further screened in Test Formula Ia-Ie, by incorporating at the indicated level. After the toothpaste was made, a small group of panelists (n=4) brushed with the dentifrice and rated the reduction in soapy off taste and the flavor character the compound provided.

TRPA1 receptor [2] = biological target: T1, TRPA1 receptor (Homo sapiens, UniProt O75762); assay: cell-based; set-up: activation: dose or concentration left out as unconfirmed; details: for activation at 100 µM / activation: HEK293; for activation at 100 µM / activation / TRPA1 Direct addition: percentage of the control (allyl isothiocyanate) calcium count, material dissolved in DMSO at 100 micromolar, HEK cells with TRPA1; for activation at 100 µM / TRPA1 Direct addition: direct addition; for activation at 100 µM: read-out: TRPA1 Direct addition; for activation: pre-incubation, read-out: TRPA1 Pre-incubation; for % of AITC Receptor Activation (from Data in Table II): restated in Table III from Table II;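 on TRPA1 Pre-incubation: values above 100 mean more active than the control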
T1 construct: expressed in transfected cells; host or cells: HEK cell line
How it was run: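 HEK cells expressing TRPA1 were treated with test compounds dissolved in DMSO at 100 micromolar, with allyl isothiocyanate as positive control. Agonism was read on a FLIPR as calcium-dye fluorescence counts above background. A TRPA1 activator was defined as giving at least 1000 counts above background at 1 mM.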

[3] = concentration where the cooling effect could be clearly recognized; cited from earlier work
TRPA1 receptor [4] = biological target: T1, TRPA1 receptor; assay type: cell-based; details: percentage of the control (allyl isothiocyanate) calcium count, material dissolved in DMSO at 100 micromolar, HEK cells with TRPA1

T1 sequence (O75762 whole entry): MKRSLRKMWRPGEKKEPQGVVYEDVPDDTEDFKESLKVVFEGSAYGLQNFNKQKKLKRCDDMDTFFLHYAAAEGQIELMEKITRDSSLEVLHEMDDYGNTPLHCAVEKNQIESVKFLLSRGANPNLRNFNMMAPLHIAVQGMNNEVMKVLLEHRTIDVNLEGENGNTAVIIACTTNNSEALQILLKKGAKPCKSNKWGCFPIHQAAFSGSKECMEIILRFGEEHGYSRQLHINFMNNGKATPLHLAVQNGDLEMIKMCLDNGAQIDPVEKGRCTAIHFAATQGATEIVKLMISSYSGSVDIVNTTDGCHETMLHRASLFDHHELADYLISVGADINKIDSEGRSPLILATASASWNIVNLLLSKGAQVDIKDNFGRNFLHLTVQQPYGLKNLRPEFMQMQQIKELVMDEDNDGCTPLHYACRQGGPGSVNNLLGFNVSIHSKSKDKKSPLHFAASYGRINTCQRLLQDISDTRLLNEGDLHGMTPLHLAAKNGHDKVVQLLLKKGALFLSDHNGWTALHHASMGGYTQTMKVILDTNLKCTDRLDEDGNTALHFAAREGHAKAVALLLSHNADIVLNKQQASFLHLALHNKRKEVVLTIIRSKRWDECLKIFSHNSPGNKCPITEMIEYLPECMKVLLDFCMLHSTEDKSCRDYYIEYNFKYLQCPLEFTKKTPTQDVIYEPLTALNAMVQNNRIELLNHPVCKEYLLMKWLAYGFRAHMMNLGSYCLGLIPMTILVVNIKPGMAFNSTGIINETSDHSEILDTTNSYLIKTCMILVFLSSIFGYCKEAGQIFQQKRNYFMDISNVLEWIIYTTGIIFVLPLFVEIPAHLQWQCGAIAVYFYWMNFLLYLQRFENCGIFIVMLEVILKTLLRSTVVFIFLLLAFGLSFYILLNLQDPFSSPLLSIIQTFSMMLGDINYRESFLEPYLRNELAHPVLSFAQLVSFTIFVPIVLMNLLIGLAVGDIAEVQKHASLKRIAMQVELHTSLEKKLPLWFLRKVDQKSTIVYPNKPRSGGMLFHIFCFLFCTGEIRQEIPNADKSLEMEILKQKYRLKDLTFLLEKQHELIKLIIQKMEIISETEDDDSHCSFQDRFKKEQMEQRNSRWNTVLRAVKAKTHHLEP

Compound | TRPA1 Pre-incubation (TRPA1 receptor [4]) [%] | TRPA1 Direct addition (TRPA1 receptor [2]) [%] | other results
CCOc1cc(C=O)ccc1OC(=O)C(C)C [Ethyl vanillin isobutyrate] |  |  | Qualitative Team Evaluations (n = 4) [1]: Great reduction in bitter taste with no aftertaste. Slight vanilla character. Similar to vanillin isobutyrate
COc1cc(C=O)ccc1OC(=O)C(C)C [Vanillin Isobutyrate] |  |  | Qualitative Team Evaluations (n = 4) [1]: Great reduction in bitter taste with no aftertaste. Slight vanilla character.; activation at 100 µM (TRPA1 receptor [2]): 118%; activation (TRPA1 receptor [2]): -0.11%; % of AITC Receptor Activation (from Data in Table II) (TRPA1 receptor [2]): 118%
Oc1cc(Cl)ccc1Oc1ccc(Cl)cc1Cl [Triclosan, reference compound] |  |  | Qualitative Team Evaluations (n = 4) [1]: Shifted off-taste from soapy to bitter after 10 minutes; activation at 100 µM (TRPA1 receptor [2]): 196%; activation (TRPA1 receptor [2]): -0.05%; % of AITC Receptor Activation (from Data in Table II) (TRPA1 receptor [2]): 277%
CC(C)[C@@H]1CC[C@@H](C)C[C@@H]1O [d-neomenthol] |  |  | cooling threshold [3]: about 25,000 ppb
CC(C)[C@@H]1CC[C@@H](C)C[C@H]1O [L-menthol] |  |  | cooling threshold [3]: about 800 ppb
CCOc1cc(C2OCC(C)O2)ccc1O (stereo not shown) [ethyl vanillin propylene glycol acetal] | 103.19 | 0 | 
C=CCCCCCCCCC=O [Undecylenic Aldehyde] | 52.14 | −14.32 | 
CCCCOC(=O)C(C)OC(=O)CCC (stereo not shown) [Butyl Butyryllactate] | 39.69 | −1.54 | 
CC(C)C(=O)O [Isobutryic Acid] | 78.64 | 1.15 | 
CC(=O)/C=C/C1=C(C)CCCC1(C)C [Beta Ionone] | 75.35 | −2.88 | 
CC(C)=CCCC(C)CCO (stereo not shown) [Cironellol] | 51.22 | −1.03 | 
CC(=O)CCc1ccc(O)cc1 [4-P-hydroxyphenyl-2-butanone] | 63.07 | 0.2 | 
COC(=O)CCCc1ccccc1 [Methyl 4-Phenyl butyrate] | 98.83 | −0.22 | 
Rhodinol 70 Spec 59508 | 87.57 | −9.13 | 
CCC(C)C=O (stereo not shown) [2-Methylbutraldehyde] | 35.61 | 81.04 | 
CC(=O)CCC1C(C)=CCCC1(C)C (stereo not drawn) [Dihydro-alpha-ionone] | 108.18 | 0.11 | 
4-Ethylguaiacol | 53.53 | 55.61 | 
CC(C)[C@@H]1CC[C@@H](C)C[C@@H]1O [Material 1-neomenthol, 1-neomenthol] |  |  | cooling threshold [3]: about 3,000 ppb
C=C(C)C1CC=C(C)C(OC(C)=O)C1 (stereo not shown) [carvyl acetate] | 117.9 | −0.25 | 

Compound | TRPA1 Pre-incubation (TRPA1 receptor [4]) [%] | TRPA1 Direct addition (TRPA1 receptor [2]) [%] | other results
2-phenyl propyl tetrahydrofuran | 108.49 | −0.15 | 
C=CCCC(=O)/C=C/C1C(C)=CCCC1(C)C (stereo not drawn) [Allyl Alpha-Ionone] | 64.99 | 0.55 | 
CCc1nc(C)cs1 [2-Ethyl-4-Methythiazole] | 62.39 | −1.38 | 
Cc1ccc(C=O)c(O)c1 [2_Hydroxy-4-Methyl Benzaldehyde] | 68.24 | 0.4 | 
CCOC(=O)/C=C/c1ccccc1 [Ethyl Cinnemate] | 70.82 | 0.45 | 
CC(C)=CC1CC(C)CCO1 (racemic) [Rose Oxide Racemic] | 80.14 | −6.68 | 
CC(=O)OC1C2(C)CCC(C2)C1(C)C (stereo not shown) [Fenchyl Acetate] | 59.08 | −0.1 | 
C=CC(C)(O)CCC=C(C)CC (mixture of isomers) [Ethyl Linalool] | 63.35 | −0.1 | 
O=C(c1ccccc1)c1ccccc1 [Benzophenone] |  |  | Qualitative Team Evaluations (n = 4) [1]: No observable effect; activation at 100 µM (TRPA1 receptor [2]): 138%; activation (TRPA1 receptor [2]): 0%; % of AITC Receptor Activation (from Data in Table II) (TRPA1 receptor [2]): 138%
Jasmonyl | 68.48 | 7.36 | 
CC(=O)O[C@@H]1C[C@H](C)CC[C@H]1C(C)C [Laevo Menthyl Acetate] | 87.91 | −9.39 | 
C=C(C)C1CC=C(C)C(OC(=O)CC)C1 (stereo not shown) [Carvyl Propionate] | 105.07 | −0.57 | 
CCCCCC(C)=O [Heptanone] | 69.5 | −0.04 | 
Cc1nc(C)c(C)s1 [,2,4,5-Trimethythiazole] | 64.86 | −1.43 | 
C=C(OCC)C1C(C)(C)CC(=O)CC1(C)C [Kephalis] | 83.88 | −0.23 | 
CCC(C)/C=C(\C=O)c1ccccc1 (stereo not shown) [4-Methyl-2-phenyl-2-hexenal, 4-Methyl-2-phenyl-2-hexenal] |  |  | Qualitative Team Evaluations (n = 4) [1]: Reduces the bitterness from alkyl phosphates, but it has a bitter character on its own; % of AITC Receptor Activation (from Data in Table II) (TRPA1 receptor [2]): 132%
CC(C)[C@@H]1CC[C@@H](C)CC1=O [L-Menthone] | 70.56 | 4.4 | 
Iso Jasmone | 58.16 | 11.48 | 
